From patent publication US20220274947A1, “NOVEL HETEROARYL-TRIAZOLE COMPOUNDS AS PESTICIDES” (Bayer Aktiengesellschaft, priority 2019, published 2022)

Tests used:
Type in all cases: in vivo
Ctenocephalides felis = Ctenocephalides felis oral test (CTECFE Oral); settings: 48 h, read-out: activity (mortality)
Procedure, shortened: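 About 20 unfed adult cat fleas fed through parafilm on cattle blood containing compound (DMSO concentrate diluted in blood to the desired concentration). Blood held at 37 °C, fleas at room temperature. Mortality (%) scored after 2 days.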

Myzus persicae [1] = assay: Myzus persicae oral test; settings: 120 h, read-out: activity (mortality)
Procedure, shortened: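 Percent mortality was recorded at day 5, where 0% means no aphids killed. Compound prepared from an acetone concentrate diluted in water and combined with IPL41 medium containing sugar was offered to mixed-stage green peach aphids, which sucked it through a parafilm seal.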

Myzus persicae [2] = assay: Myzus persicae spray test; settings: in Brassica rapa, foliar, 120 h; for mortality at 500 g/ha: read-out: activity (mortality), application rate 500 g/ha, spray, Chinese cabbage leaf disks, after 5 days; for mortality at 100 g/ha: read-out: activity (mortality), application rate 100 g/ha, spray, Chinese cabbage leaf disks, after 5 days
Procedure, shortened: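 Compound in acetone/DMF solvent diluted in water with 1000 ppm alkylarylpolyglycol ether emulsifier, sprayed onto Chinese cabbage leaf disks infested with all instars of Myzus persicae. Mortality (%) scored after 5 days.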

[3] = test system: Aedes aegypti strain MONHEIM; assay: Aedes aegypti test (AEDSAE surface treatment & contact assay); settings: exposure 30 minutes, 24 hours after contact, read-out: efficacy (mortality); for mortality at 20 mg/m2: surface concentration 20 mg/m^2, glazed tile; for mortality at 4 mg/m2: surface concentration 4 mg/m^2, glazed tile
Procedure, shortened: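 Compound dissolved in acetone (2 mg/ml) with 2000 ppm rapeseed oil methyl ester, pipetted onto glazed tile and dried. Adult mosquitoes exposed on the surface for 30 min; percent mortality scored 24 h after contact.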

[4] = test system: Culex quinquefasciatus strain P00; assay: Culex quinquefasciatus test (CULXFA surface treatment & contact assay); settings: exposure 30 minutes, 24 hours after contact, read-out: efficacy (mortality); for mortality at 20 mg/m2: surface concentration 20 mg/m^2, glazed tile; for mortality at 4 mg/m2: surface concentration 4 mg/m^2, glazed tile
Protocol: Culex quinquefasciatus Test (CULXFA Surface Treatment & Contact Assay) Solvent: Aceton+2000 ppm rapeseed oil methyl ester (RME)
In order to produce a sufficient, active ingredient containing solution it is necessary to solve the test compound in the solvent-mix (acetone at 2 mg/ml/RME 2 000 ppm). This solution is pipetted onto a glazed tile and after evaporation of the acetone, adult mosquitoes of the species Culex quinquefasciatus strain P00 are placed onto the dried surface. The exposure time is 30 minutes. Mortality in percent (%) is determined 24 hours after contact of the insects to the treated surface. 100% mortality means that all tested insects are dead, whereas 0% means that no insect died.

Rhipicephalus sanguineus = Rhipicephalus sanguineus in-vitro contact test, adult brown dog ticks (RHIPSA Cont); settings: 48 h, after 48 hours, read-out: activity (efficacy: 100% means all ticks are dead or moribund); for pest or weed control at 1 µg/cm2, 100 g/ha: application rate 1 μg/cm^2 (=100 g/ha); for pest or weed control at 5 µg/cm2, 500 g/ha: application rate 5 μg/cm^2 (=500 g/ha)
Procedure, shortened: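 Compound in acetone was coated onto the inner walls of glass tubes and dried by rotation before adult brown dog ticks were exposed. Efficacy was scored at 48 h. Ticks unable to climb away from a 45–50 °C heating plate within 5 min counted as dead or moribund.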

[5] = test system: Anopheles funestus strain FUMOZ-R; assay: Anopheles funestus test (ANPHFU surface treatment & contact assay); settings: exposure 30 minutes, 24 hours after contact, read-out: efficacy (mortality); for mortality at 4 mg/m2: surface concentration 4 mg/m^2, glazed tile; for mortality at 20 mg/m2: surface concentration 20 mg/m^2, glazed tile
Procedure, shortened: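 Adult FUMOZ-R mosquitoes were exposed 30 min to glazed tiles treated with compound in acetone plus 2000 ppm rapeseed oil methyl ester, after solvent evaporation. Percent mortality was scored 24 h after contact.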

SMILES | mortality at 100 ppm (Ctenocephalides felis) [%] | mortality at 4 ppm (Myzus persicae [1]) [%] | mortality at 500 g/ha (Myzus persicae [2]) [%] | mortality at 20 mg/m2 [3] [%] | mortality at 20 mg/m2 [4] [%] | pest or weed control at 1 µg/cm2, 100 g/ha (Rhipicephalus sanguineus) [%] | pest or weed control at 5 µg/cm2, 500 g/ha (Rhipicephalus sanguineus) [%] | mortality at 4 mg/m2 [3] [%] | mortality at 4 mg/m2 [4] [%] | mortality at 4 mg/m2 [5] [%] | mortality at 20 mg/m2 [5] [%] | mortality at 100 g/ha (Myzus persicae [2]) [%] | mortality at 0.8 ppm (Myzus persicae [1]) [%]
C[C@H](NC(=O)c1cc(Cl)cc(OC(F)(F)F)c1)c1ncnn1-c1cc(N)ccn1 [II-7] | 100 | 100 | 100 | 80 to 100 | 80 to 100 | – | – | – | – | – | – | – | –
C[C@H](NC(=O)c1ccnc(C(F)(F)F)n1)c1ncnn1-c1ccc(C#N)cn1 [II-8] | 100 | – | 90 | 80 to 100 | 80 to 100 | 100 | 100 | 80 to 100 | 80 to 100 | 80 to 100 | 80 to 100 | – | –
C[C@H](NC(=O)c1cccc(Cl)n1)c1ncnn1-c1ccc(C#N)cn1 [II-9] | 90 | – | – | – | 80 to 100 | – | 80 | – | – | 80 to 100 | 80 to 100 | – | –
C[C@H](NC(=O)c1cc(Cl)cc(SC(F)F)c1)c1ncnn1-c1ccc(C#N)cn1 [II-11] | 100 | 100 | – | 80 to 100 | 80 to 100 | – | 80 | 80 to 100 | 80 to 100 | – | – | – | –
C[C@H](NC(=O)c1cc(Br)cc(Br)c1)c1ncnn1-c1ccc(C#N)cn1 [II-13] | 100 | 90 | – | 80 to 100 | 80 to 100 | 100 | 80 | 80 to 100 | – | – | – | – | –
C[C@H](NC(=O)c1cc(Cl)cc(OC(F)(F)F)c1)c1ncnn1-c1ncc(Cl)s1 [II-16] | 100 | – | – | 80 to 100 | 80 to 100 | 100 | 100 | – | – | – | 80 to 100 | 90 | –
Cc1nc([C@H](C)NC(=O)c2cc(Cl)cc(Cl)c2)n(-c2cc(C#N)ccn2)n1 [II-17] | 100 | – | – | 80 to 100 | 80 to 100 | 80 | 100 | 80 to 100 | – | 80 to 100 | 80 to 100 | – | –
Cc1nc([C@H](C)NC(=O)c2cc(Cl)cc(C(F)(F)F)c2)n(-c2cc(C#N)ccn2)n1 [II-18] | 90 | 100 | – | – | 80 to 100 | 100 | 100 | – | – | – | – | – | –
Cc1nc([C@H](C)NC(=O)c2cc(C(F)(F)F)cc(C(F)(F)F)c2)n(-c2cc(C#N)ccn2)n1 [II-19] | 100 | 100 | – | 80 to 100 | 80 to 100 | 100 | 100 | 80 to 100 | – | – | – | – | 100
CC(=O)Nc1ccnc(-n2ncnc2[C@H](C)NC(=O)c2cc(Cl)cc(OC(F)(F)F)c2)c1 [II-22] | 100 | – | – | 80 to 100 | 80 to 100 | – | – | 80 to 100 | 80 to 100 | 80 to 100 | 80 to 100 | – | –
CCN(C)C(=O)c1ccc(-n2ncnc2[C@H](C)NC(=O)c2cc(Cl)cc(C(F)(F)F)c2)nc1 [II-27] | – | 100 | 90 | 80 to 100 | 80 to 100 | 100 | 100 | 80 to 100 | – | – | 80 to 100 | – | –
C[C@H](NC(=O)c1cc(Cl)cc(C(F)(F)F)c1)c1ncnn1-c1cc(N)ccn1 [II-28] | 100 | 90 | – | 80 to 100 | 80 to 100 | 100 | 100 | – | 80 to 100 | – | – | – | –
C[C@H](NC(=O)c1cc(Cl)cc(OC(F)(F)F)c1)c1ncnn1-c1ncc(OC(F)F)cn1 [II-30] | 100 | 100 | – | 80 to 100 | – | 100 | 100 | 80 to 100 | 80 to 100 | – | – | – | –
CCN(C(=O)c1ccc(-n2ncnc2[C@H](C)NC(=O)c2cc(Cl)cc(C(F)(F)F)c2)nc1)C1CC1 [II-31] | – | 100 | 100 | 80 to 100 | 80 to 100 | 100 | 100 | – | – | 80 to 100 | 80 to 100 | 100 | –
CC(=O)Nc1ccnc(-n2ncnc2[C@H](C)NC(=O)c2cc(Cl)cc(C(F)(F)F)c2)c1 [II-36] | – | – | 90 | 80 to 100 | 80 to 100 | – | – | 80 to 100 | 80 to 100 | 80 to 100 | 80 to 100 | – | –
C[C@H](NC(=O)c1cc(C(F)(F)F)cc(C(F)(F)F)c1)c1ncnn1-c1ccc(C(=O)NC2CC2)cn1 [II-37] | – | 100 | 100 | 80 to 100 | 80 to 100 | – | 80 | 80 to 100 | – | – | – | – | 100
C[C@H](NC(=O)c1cc(C(F)(F)F)cc(C(F)(F)F)c1)c1ncnn1-c1ncc(Cl)s1 [II-40] | – | – | 100 | 80 to 100 | 80 to 100 | 80 | – | 80 to 100 | 80 to 100 | – | 80 to 100 | – | –
C[C@H](NC(=O)c1cc(C(F)(F)F)cc(C(F)(F)F)c1)c1ncnn1-c1ncc(Br)s1 [II-41] | – | 100 | – | 80 to 100 | 80 to 100 | 100 | 100 | 80 to 100 | 80 to 100 | – | – | – | –
C[C@H](NC(=O)c1cc(Cl)cc(C#N)c1)c1ncnn1-c1ccc(C#N)cn1 [II-57] | 100 | – | – | 80 to 100 | 80 to 100 | 100 | 100 | 80 to 100 | 80 to 100 | – | – | 90 | –
Cc1nc([C@H](C)NC(=O)c2cc(Cl)nc(C(F)(F)F)c2)n(-c2ccc(C#N)cn2)n1 [II-62] | 100 | 100 | – | 80 to 100 | 80 to 100 | 100 | 100 | 80 to 100 | – | – | – | 100 | –
C[C@H](NC(=O)c1cc(OC(F)F)cc(OC(F)F)c1)c1ncnn1-c1ccc(C#N)cn1 [II-77] | 100 | 100 | – | 80 to 100 | – | – | 100 | 80 to 100 | – | 80 to 100 | 80 to 100 | 90 | 90
C[C@H](NC(=O)c1cc(Cl)cc(C(F)(F)F)c1)c1ncnn1-c1ccc(N(C)C(=O)C2CC2)cn1 [II-79] | 100 | – | – | 80 to 100 | – | 80 | 80 | 80 to 100 | – | 80 to 100 | 80 to 100 | 100 | 100
C[C@H](NC(=O)c1cc(Br)cc(C(F)F)c1)c1ncnn1-c1ccc(C#N)cn1 [II-83] | 100 | 100 | – | 80 to 100 | – | 100 | 100 | 80 to 100 | – | 80 to 100 | 80 to 100 | 90 | –
